Tests used:
[1] = tested on: MCF-7 Cell line; assay: MTT cell proliferation assay, MCF-7 Cell line; assay type: cell-based; conditions: Homo sapiens, MCF7, 72 h, MTT; for viability at 0.01 µM: MCF-7, 0.01 μM; for viability at 0.1 µM: MCF-7, 0.1 μM; for viability at 2.5 µM: MCF-7, 2.5 μM; for viability at 5 µM: MCF-7, 5 μM; for viability at 10 µM: MCF-7, 10 μM
Description: (§1) 1. Protocol Followed for Anti Cancer Activity and Results, Cell Proliferation Assays: Cell lines used herein were purchased from NCCS (National Center for Cell Sciences) Pune, India. Invitro Activity was performed in NCL (National Chemical Laboratory) Pune. Each cell line was plated in 96-well microtiter plates (10,000 cells per well), and serial dilutions of indicated compounds were added. At the end of the incubation period (72 h at 37° C.), cell viability was determined by a tetrazolium dye, MTT (3-(4,5-dimethylthiazol-2-yl)-2,5-diphenyl tetrazolium bromide) (Promega, USA). The formazan crystals were dissolved in DMSO, and the absorbance at 600 nm was recorded using an ELISA plate reader. IC50 values were calculated using nonlinear regression and defined as the concentration needed for a 50% reduction in absorbance of treated versus untreated control cells.
Table 4 indicates anticancer activity against A549 Cell line. The Gefitinib was used as standard and % cell Viable was measured compared to control. The procedure used was MTT assay as mentioned. […] By using the above procedure, the compounds of the invention were tested on MCF-7 Cell line and the results obtained are presented below in table 5, Refer FIG. 2.

[2] = tested on: HOP-62 Cell line; assay: MTT cell proliferation assay, HOP-62 Cell line; assay type: cell-based; conditions: Homo sapiens, 72 h, MTT; for viability at 0.01 µM: HOP-62, 0.01 μM; for viability at 0.1 µM: HOP-62, 0.1 μM; for viability at 2.5 µM: HOP-62, 2.5 μM; for viability at 5 µM: HOP-62, 5 μM; for viability at 10 µM: HOP-62, 10 μM
Description: as §1
By using the above procedure, the compounds of the invention were tested on HOP-62 Cell line and the results obtained are presented below in table 6, Refer FIG. 3.

[3] = tested on: MDA-MB-436 Cell line; assay: MTT cell proliferation assay, MDA-MB-436 Cell line; assay type: cell-based; conditions: Homo sapiens, 72 h, MTT; for viability at 0.01 µM: MDA-MB-436, 0.01 μM; for viability at 0.1 µM: MDA-MB-436, 0.1 μM; for viability at 2.5 µM: MDA-MB-436, 2.5 μM; for viability at 5 µM: MDA-MB-436, 5 μM; for viability at 10 µM: MDA-MB-436, 10 μM
Description: as §1
By using the above procedure, the compounds of the invention were tested on MDA-MB-436 Cell line and the results obtained are presented below in table 7, Refer FIG. 4.

[4] = tested on: U87MG Cell line (Glioblastoma cell line); assay: MTT cell proliferation assay, U87MG Cell line; assay type: cell-based; conditions: Homo sapiens, U-87 MG, U87MG, 72 h, MTT
Description: as §1
By using the above procedure, the compounds of the invention were tested on U87MG Cell line (glioblastoma cell line) and the results obtained are presented below in table 8, Refer FIG. 5.

[5] = tested on: A549 Cell line (Lung Cancer Cell line); assay: MTT cell proliferation assay, A549 Cell line; assay type: cell-based, human; conditions: Homo sapiens, 72 h, MTT; for viability at 0.01 µM: A549, 0.01 μM; for viability at 0.1 µM: A549, 0.1 μM; for viability at 2.5 µM: A549, 2.5 μM; for viability at 5 µM: A549, 5 μM; for viability at 10 µM: A549, 10 μM
Description: as §1
By using the above procedure, the compounds of the invention were tested on A549 Cell line and the results obtained are presented below in table 4, Refer FIG. 1.

Row | Compound | viability at 0.01 µM [1] | viability at 0.1 µM [1] | viability at 2.5 µM [1] | viability at 5 µM [1] | viability at 10 µM [1] | viability at 0.01 µM [2] | viability at 0.1 µM [2] | viability at 2.5 µM [2] | viability at 5 µM [2] | viability at 10 µM [2] | viability at 0.01 µM [3] | viability at 0.1 µM [3] | viability at 2.5 µM [3] | viability at 5 µM [3] | viability at 10 µM [3] | viability at 0.01 µM [4] | viability at 0.1 µM [4] | viability at 2.5 µM [4] | viability at 5 µM [4] | viability at 10 µM [4] | other results
1 | COc1cc2ncnc(Nc3ccc(F)c(Cl)c3)c2cc1OCCCN1CCOCC1 [Gefitinib, reference compound] | 55.2% | 43.7% | 35.3% | 29.3% | 20.3% | 55.2% | 43.7% | 35.3% | 29.3% | 20.3% | 55.2% | 43.7% | 35.3% | 29.3% | 20.3% |  |  |  |  |  | 
2 | Cc1ccc2[nH]c(-c3sc(Nc4ccc(Cl)cc4)nc3N)nc2c1 [Molecule S4-M12, N^2-(4-chlorophenyl)-5-(5-methyl-1H-benzo[d]imidazol-2-yl)thiazole-2,4-diamine] | 99.1% | 91.4% | 85.9% | 74.9% | 70.8% | 102% | 95.4% | 92.9% | 85.9% | 79.9% | 94.1% | 89.4% | 79.9% | 65.9% | 51.8% | 92.1% | 81.4% | 73.9% | 61.9% | 49.8% | viability at 0.01 µM [5]: 93.1%; viability at 0.1 µM [5]: 81.4%; viability at 2.5 µM [5]: 69.9%; viability at 5 µM [5]: 58.9%; viability at 10 µM [5]: 49.9%
3 | Cc1ccc2[nH]c(-c3sc(Nc4cccc(C(F)(F)F)c4)nc3N)nc2c1 [Molecule S4-M13, N^2-(3-(trifluoromethyl)phenyl)-5-(5-methyl-1H-benzo[d]imidazol-2-yl)thiazole-2,4-diamine] | 99.4% | 92.9% | 81.4% | 72.6% | 66.9% | 99.4% | 96.9% | 90.4% | 80.6% | 75.6% | 98.4% | 96.9% | 97.4% | 97.6% | 97.9% | 95.8% | 83.7% | 71.2% | 60.8% | 53.8% | viability at 0.01 µM [5]: 99.4%; viability at 0.1 µM [5]: 82.9%; viability at 2.5 µM [5]: 73.6%; viability at 5 µM [5]: 61.6%; viability at 10 µM [5]: 50.6%
4 | COc1ccc(Nc2nc(N)c(-c3nc4cc(C)ccc4[nH]3)s2)cc1 [Molecule S4-M11, N^2-(4-methoxyphenyl)-5-(5-methyl-1H-benzo[d]imidazol-2-yl)thiazole-2,4-diamine] | 157% | 133% | 110% | 101% | 101% | 157% | 101% | 98.2% | 96.8% | 91.8% | 96.8% | 92.7% | 84.2% | 73.8% | 61.8% | 86.8% | 71.7% | 60.2% | 49.8% | 38.8% | viability at 0.01 µM [5]: 94.8%; viability at 0.1 µM [5]: 80.7%; viability at 2.5 µM [5]: 72.8%; viability at 5 µM [5]: 63.8%; viability at 10 µM [5]: 51.8%
5 | Cc1ccc(Nc2nc(N)c(-c3nc4ccccc4[nH]3)s2)cc1 [Molecule S4-M9, 5-(1H-benzo[d]imidazol-2-yl)-N2-p-tolylthiazole-2,4-diamine] | 100% | 98.8% | 96.3% | 96.3% | 96.6% | 123% | 101% | 100% | 98.3% | 90.8% | 91% | 85.8% | 79.3% | 69.3% | 54.6% | 99.4% | 99.9% | 99.4% | 98.6% | 96.9% | viability at 0.01 µM [5]: 89%; viability at 0.1 µM [5]: 79.8%; viability at 2.5 µM [5]: 68.3%; viability at 5 µM [5]: 57.3%; viability at 10 µM [5]: 48.3%
6 | COc1ccc(Nc2nc(N)c(-c3nc4c(C)cccc4[nH]3)s2)cc1 [Molecule S4-M15, N^2-(4-methoxyphenyl)-5-(4-methyl-1H-benzo[d]imidazol-2-yl)thiazole-2,4-diamine] | 92.1% | 89.9% | 75.7% | 70.7% | 61.3% | 104% | 98.7% | 92.7% | 81.7% | 77.3% | 96.1% | 94.9% | 90.7% | 81.7% | 71.3% | 89.1% | 82.9% | 71.7% | 59.7% | 48.3% | viability at 0.01 µM [5]: 93.1%; viability at 0.1 µM [5]: 79.7%; viability at 2.5 µM [5]: 68.3%; viability at 5 µM [5]: 59.3%; viability at 10 µM [5]: 49.3%
7 | Nc1nc(Nc2cccc(C(F)(F)F)c2)sc1-c1nc2ccccc2[nH]1 [Molecule S4-M8, 5-(1H-benzo[d]imidazol-2-yl)-N2-(3-(trifluoromethyl)phenyl)thiazole-2,4-diamine] | 98.6% | 90.8% | 82.6% | 79.6% | 69.6% | 99.6% | 90.8% | 89.6% | 81.6% | 80.6% | 101% | 99.8% | 98.6% | 97.6% | 97.6% | 86.6% | 73.8% | 61.6% | 54.6% | 41.6% | viability at 0.01 µM [5]: 98.6%; viability at 0.1 µM [5]: 88.8%; viability at 2.5 µM [5]: 76.6%; viability at 5 µM [5]: 68.6%; viability at 10 µM [5]: 59.6%
8 | Cc1ccc2[nH]c(-c3sc(Nc4ccccc4)nc3N)nc2c1 [Molecule S4-M10, 5-(5-methyl-1H-benzo[d]imidazol-2-yl)-N2-phenylthiazole-2,4-diamine] | 141% | 120% | 104% | 100% | 100% | 104% | 100% | 99.4% | 95.4% | 89.4% | 92.9% | 84% | 76.4% | 61.4% | 49.4% | 88.9% | 75% | 68.4% | 55.4% | 41.4% | viability at 0.01 µM [5]: 90.9%; viability at 0.1 µM [5]: 81%; viability at 2.5 µM [5]: 70.4%; viability at 5 µM [5]: 61.4%; viability at 10 µM [5]: 49.4%

Reference: US9862712B2, “Benzimidazole based EGFR inhibitors” (COUNCIL OF SCIENTIFIC & INDUSTRIAL RESEARCH, priority 2014, dated 2018)
